Reference: article PMC5422493, “Important amino acid residues of hexachlorocyclohexane dehydrochlorinases (LinA) for enantioselective transformation of hexachlorocyclohexane isomers” (Biodegradation, 2017)
Changes are numbered by the printed parent chain.

Assays:
LinA-type1 = molecular target: T1, LinA-type1 (Sphingobium indicum, UniProt P51697); experiment: product formation by chiral GC-ECD; type: biochemical; settings: 50 mM Tris-HCl pH 8.0, 10% glycerol, 30 °C
T1 construct: full length 156 residues, pET-26b(+) NdeI/XhoI (C-terminal His tag), E. coli BL21(DE3), Ni-NTA purified
T1 sequence (P51697 1-156): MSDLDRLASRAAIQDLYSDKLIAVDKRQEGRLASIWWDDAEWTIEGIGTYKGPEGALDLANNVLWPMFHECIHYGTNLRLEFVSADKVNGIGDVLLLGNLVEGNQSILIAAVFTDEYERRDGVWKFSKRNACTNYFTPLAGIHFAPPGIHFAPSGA

LinA-type2 = molecular target: T2, LinA-type2 (uncultured organism, UniProt B5ANU3); experiment: product formation by chiral GC-ECD; type: biochemical; settings: 50 mM Tris-HCl pH 8.0, 10% glycerol, 30 °C
T2 construct: natural variant differing from LinA-type1 at ten positions (incl. Q20, C96, G131, M133); pET-26b(+) NdeI/XhoI (C-terminal His tag), E. coli BL21(DE3), Ni-NTA purified
T2 sequence (B5ANU3 1-156): T1 sequence (P51697 1-156) with K20Q, A23G, F68Y, C71T, L96C, F113Y, D115N, R129L, A131G, T133M

Cl[C@H]1[C@H](Cl)[C@@H](Cl)[C@@H](Cl)[C@H](Cl)[C@H]1Cl [γ-HCH]
product formation by chiral GC-ECD (LinA-type1): incubations of LinA-type1 with γ-HCH led to the formation of only γ-PCCH-2
product formation by chiral GC-ECD (LinA-type2): incubations with LinA-type2 led to the formation of a mixture
